Laboratory results reported in publication PMC4019636, “Rational Design of Berberine-Based FtsZ Inhibitors with Broad-Spectrum Antibacterial Activity” (PLoS ONE, 2014).

Assays:
Format in all cases: cell-based
E. coli ATCC 25922 = experiment: Antimicrobial susceptibility assay (broth microdilution MIC); conditions: Escherichia coli, ATCC25922; E. coli ATCC 25922; Mueller Hinton broth, 18 h at 37°C; growth inhibited by ≥90%; read-out: MIC
Source text: (§1) The bacterial strains S. aureus ATCC 29213, S. aureus ATCC 29247, S. aureus ATCC BAA-41, E. faecium ATCC 49624, E. faecium ATCC 700221, E. faecalis ATCC 29212, S. epidermidis ATCC 12228, E. coli ATCC 25922, and K. pneumoniae ATCC BAA-1144 used in the antimicrobial susceptibility assays were purchased from American Type Culture Collection (ATCC, USA). B. subtilis strain 168 was already available in our in-house collection. E. coli JM109 WM647 was kindly provided by Dr. W. Margolin (University of Texas-Houston Medical School). FM 4–64 was purchased from Invitrogen (Eugene, Oregon). All other chemicals and reagents were purchased from Sigma-Aldrich. Stock solutions were prepared in DMSO. The final percentage of DMSO in the assays was 1% (v/v) for all experiments.
(§2) Antimicrobial susceptibility tests were conducted in 96-well microplates using the broth microdilution procedure described in the Clinical and Laboratory Standards Institute (CLSI) guidelines. Cation-adjusted Mueller Hinton broth for S. aureus strain ATCC 29213, methicillin-resistant S. aureus strain ATCC BAA-41 and ampicillin-resistant S. aureus strain ATCC 29247, or brain heart infusion broth for antibiotic-susceptible E. faecium strain ATCC 49624 and vancomycin-resistant E. faecium strain ATCC 700221, or Mueller Hinton broth for antibiotic-susceptible strains B. subtilis strain 168, E. faecalis strain ATCC 29212 and E. coli strain ATCC 25922 were used in the assays. After incubation for 18 h at 37°C, the absorbance at 600 nm (A600) was recorded using a microplate reader (Bio-Rad laboratory Ltd., UK) and the percentage of bacterial cell inhibition with respect to vehicles (1% DMSO) was calculated. The MIC was defined as the lowest compound concentration at which the growth of bacteria was inhibited by ≥90%. Three independent assays were performed for each test.

E. faecalis ATCC 29212 = experiment: as above; conditions: Enterococcus faecalis, ATCC29212; E. faecalis ATCC 29212; Mueller Hinton broth, 18 h at 37°C; growth inhibited by ≥90%; read-out: MIC
Source text: as §1, §2

S. aureus ATCC 29213 = experiment: as above; conditions: Staphylococcus aureus, ATCC29213; S. aureus ATCC 29213; cation-adjusted Mueller Hinton broth, 18 h at 37°C; growth inhibited by ≥90%; read-out: MIC
Source text: as §1, §2

[1] = tested on: K. pneumoniae ATCC BAA-1144; experiment: as above; conditions: Klebsiella pneumoniae, ATCCBAA1144; K. pneumoniae ATCC BAA-1144 (Gram-negative, expressing AmpC β-lactamase); 18 h at 37°C; growth inhibited by ≥90%; read-out: MIC
Source text: as §1, §2

B. subtilis 168 = experiment: as above; conditions: Bacillus subtilis; B. subtilis 168; Mueller Hinton broth, 18 h at 37°C; growth inhibited by ≥90%; read-out: MIC
Source text: as §1, §2

S. aureus ATCC BAA-41 = experiment: as above; conditions: Staphylococcus aureus, ATCCBAA41; S. aureus ATCC BAA-41 (methicillin-resistant); 18 h at 37°C; growth inhibited by ≥90%; read-out: MIC
Source text: as §1, §2

S. aureus ATCC 29247 = experiment: as above; conditions: Staphylococcus aureus, ATCC29247; S. aureus ATCC 29247 (ampicillin-resistant); 18 h at 37°C; growth inhibited by ≥90%; read-out: MIC
Source text: as §1, §2

[2] = tested on: S. epidermidis ATCC 12228; experiment: as above; conditions: Staphylococcus epidermidis, ATCC12228; S. epidermidis ATCC 12228; 18 h at 37°C; growth inhibited by ≥90%; read-out: MIC
Source text: as §1, §2

[3] = tested on: vancomycin-susceptible and vancomycin-resistant E. faecium; experiment: Antimicrobial susceptibility assay, summary over E. faecium strains; conditions: Enterococcus faecium
Source text: as §1, §2

E. faecium ATCC 49624 = experiment: Antimicrobial susceptibility assay (broth microdilution MIC); conditions: Enterococcus faecium, ATCC49624; E. faecium ATCC 49624; brain heart infusion broth, 18 h at 37°C; growth inhibited by ≥90%; read-out: MIC
Source text: as §1
(§3) Antimicrobial susceptibility tests were conducted in 96-well microplates using the broth microdilution procedure described in the Clinical and Laboratory Standards Institute (CLSI) guidelines. […] After incubation for 18 h at 37°C, the absorbance at 600 nm (A600) was recorded using a microplate reader (Bio-Rad laboratory Ltd., UK) and the percentage of bacterial cell inhibition with respect to vehicles (1% DMSO) was calculated. The MIC was defined as the lowest compound concentration at which the growth of bacteria was inhibited by ≥90%. Three independent assays were performed for each test.

E. faecium ATCC 700221 = experiment: as above; conditions: Enterococcus faecium, ATCC700221; E. faecium ATCC 700221 (vancomycin-resistant); brain heart infusion broth, 18 h at 37°C; growth inhibited by ≥90%; read-out: MIC
Source text: as §1, §3

Row | SMILES | MIC (E. coli ATCC 25922) [µg/mL] | MIC (E. faecalis ATCC 29212) [µg/mL] | MIC (S. aureus ATCC 29213) [µg/mL] | MIC [1] [µg/mL] | MIC (B. subtilis 168) [µg/mL] | MIC (S. aureus ATCC BAA-41) [µg/mL] | MIC (S. aureus ATCC 29247) [µg/mL] | MIC [2] [µg/mL] | MIC [3] [µg/mL] | MIC (E. faecium ATCC 49624) [µg/mL] | MIC (E. faecium ATCC 700221) [µg/mL]
1 | COc1ccc2cc3[n+](cc2c1OC)CCc1cc2c(cc1-3)OCO2 [Berberine, Berberine chloride] | > 500 | > 196 | 128 | > 500 | 128 | 196 | 128 | 128 | > 196 | > 196 | > 196
2 | COc1ccc2cc3[n+](cc2c1OCCCOc1ccccc1)CCc1cc2c(cc1-3)OCO2 [Compound 1] | 96 | 16 | 4 | 128 | 8 | 4 | 4 | 4 | 4 to 16 | 8 | 8
3 | COc1ccc2cc3[n+](cc2c1OCCCOc1ccc(Cl)cc1)CCc1cc2c(cc1-3)OCO2 [Compound 2] | 32 | 4 | 2 | 64 | 4 | 2 | 2 | 2 | 4 to 16 | 4 | 4
4 | COc1ccc(OCCCOc2c(OC)ccc3cc4[n+](cc23)CCc2cc3c(cc2-4)OCO3)cc1 [Compound 3] | 128 | 32 | 8 | 128 | 8 | 8 | 8 | 4 | 4 to 16 | 16 | 16
5 | COc1ccc2cc3[n+](cc2c1OCCCOc1ccccc1C)CCc1cc2c(cc1-3)OCO2 [Compound 4] | 96 | 8 | 4 | 64 | 8 | 4 | 4 | 4 | 4 to 16 | 8 | 8
6 | COc1ccc2cc3[n+](cc2c1OCCCOc1ccc([N+](=O)[O-])cc1)CCc1cc2c(cc1-3)OCO2 [Compound 5] | 32 | 8 | 2 | 64 | 8 | 2 | 2 | 2 | 4 to 16 | 8 | 8
7 | COc1ccc2cc3[n+](cc2c1OCCCCOc1ccccc1)CCc1cc2c(cc1-3)OCO2 [Compound 6] | 96 | 16 | 4 | 128 | 8 | 4 | 4 | 4 | 4 to 16 | 8 | 8
